Measurements: ChEMBL document CHEMBL1201862, “PubChem BioAssay data set” (2004)
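Interpolation was linear, between the two tested concentrations surrounding the appropriate level; five concentrations were tested over 48 hours in 96-well plates. The concentration for 50% growth inhibition is given as GI50.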 The source made the active and inactive calls. Rule as the data show it: active = GI50 up to about 1.1 µM and inactive = higher.

Tests used:
Assay in all cases: growth of human tumour cells (NCI), 48 h
NCI-H23 = system: NCI-H23
SNB-75 = system: SNB-75
Malme-3M = system: Malme-3M
U-251 = system: U-251
HCT-15 = system: HCT-15
HCC 2998 = system: HCC 2998
HCT-116 = system: HCT-116
CAKI-1 = system: CAKI-1
UACC-257 = system: UACC-257
UACC-62 = system: UACC-62
MOLT-4 = system: MOLT-4
SK-MEL-28 = system: SK-MEL-28
EKVX = system: EKVX
OVCAR-5 = system: OVCAR-5
A549 = system: A549
K562 = system: K562
NCI-H522 = system: NCI-H522
RPMI-8226 = system: RPMI-8226

O=C1/C(=C/c2ccccc2)CCCC/C1=C\c1ccccc1
GI50 (NCI-H23): 45.1 µM (inactive)
GI50 (SNB-75): 66.7 µM (inactive)
GI50 (Malme-3M): 36.2 µM (inactive)
GI50 (U-251): 62.2 µM (inactive)
GI50 (HCT-15): 32.9 µM
GI50 (HCC 2998): 48.5 µM (inactive)
GI50 (HCT-116): 40.6 µM (inactive)
GI50 (CAKI-1): > 100 µM (inactive)
GI50 (UACC-257): 41.2 µM (inactive)
GI50 (UACC-62): > 100 µM (inactive)
GI50 (MOLT-4): 27.7 µM (inactive)
GI50 (SK-MEL-28): > 100 µM (inactive)
GI50 (EKVX): > 100 µM (inactive)
GI50 (OVCAR-5): 29 µM (inactive)
GI50 (A549): 41.7 µM (inactive)

c1cc2c(cc1C1OCC3C(c4ccc5c(c4)OCO5)OCC13)OCO2 (centres undefined)
GI50 (NCI-H23): 38.5 µM (inactive)
GI50 (SNB-75): 50.8 µM (inactive)
GI50 (Malme-3M): 61.9 µM (inactive)
GI50 (U-251): 83 µM (inactive)
GI50 (HCT-15): 50.6 µM
GI50 (HCC 2998): 71.1 µM (inactive)
GI50 (HCT-116): 51.5 µM (inactive)
GI50 (UACC-257): 53.8 µM (inactive)
GI50 (K562): 35.6 µM (inactive)
GI50 (NCI-H522): 65.8 µM (inactive)
GI50 (UACC-62): 50 µM (inactive)
GI50 (MOLT-4): 34.1 µM (inactive)
GI50 (SK-MEL-28): 64.7 µM (inactive)
GI50 (EKVX): 62.4 µM (inactive)
GI50 (OVCAR-5): 55.6 µM (inactive)
GI50 (A549): 54 µM (inactive)

CCOC(=O)C(=CNC(Cc1c[nH]c2ccccc12)C(=O)OC)C(=O)OCC (centres undefined)
GI50 (NCI-H23): > 100 µM (inactive)
GI50 (SNB-75): > 100 µM (inactive)
GI50 (Malme-3M): > 100 µM (inactive)
GI50 (U-251): > 100 µM (inactive)
GI50 (HCT-15): > 100 µM
GI50 (RPMI-8226): > 100 µM (inactive)
GI50 (CAKI-1): > 100 µM (inactive)
GI50 (K562): > 100 µM (inactive)
GI50 (NCI-H522): > 100 µM (inactive)
GI50 (UACC-62): 71.1 µM (inactive)
GI50 (MOLT-4): > 100 µM (inactive)
GI50 (SK-MEL-28): > 100 µM (inactive)
GI50 (EKVX): > 100 µM (inactive)

C#CCOc1c(C(=O)OCC)c(=O)n(C)c2ccccc12
GI50 (NCI-H23): > 100 µM (inactive)
GI50 (SNB-75): 54.5 µM (inactive)
GI50 (Malme-3M): > 100 µM (inactive)
GI50 (U-251): > 100 µM (inactive)
GI50 (HCT-15): > 100 µM
GI50 (RPMI-8226): > 100 µM (inactive)
GI50 (CAKI-1): > 100 µM (inactive)
GI50 (K562): > 100 µM (inactive)
GI50 (NCI-H522): > 100 µM (inactive)
GI50 (UACC-62): > 100 µM (inactive)
GI50 (MOLT-4): > 100 µM (inactive)
GI50 (SK-MEL-28): > 100 µM (inactive)
GI50 (EKVX): > 100 µM (inactive)

COC(=O)CC(c1ccccc1)C1(c2ccccc2)SCCS1 (centres undefined)
GI50 (NCI-H23): 130 µM (inactive)
GI50 (Malme-3M): > 290 µM (inactive)
GI50 (U-251): > 290 µM (inactive)
GI50 (HCT-15): 94.8 µM
GI50 (HCC 2998): > 290 µM (inactive)
GI50 (HCT-116): 101 µM (inactive)
GI50 (RPMI-8226): 21.2 µM (inactive)
GI50 (CAKI-1): 262 µM (inactive)
GI50 (UACC-257): > 290 µM (inactive)
GI50 (K562): 133 µM (inactive)
GI50 (NCI-H522): 106 µM (inactive)
GI50 (UACC-62): 142 µM (inactive)
GI50 (MOLT-4): 58.1 µM (inactive)
GI50 (SK-MEL-28): > 290 µM (inactive)
GI50 (EKVX): > 290 µM (inactive)
GI50 (OVCAR-5): > 290 µM (inactive)
GI50 (A549): 272 µM (inactive)

CN(C)CCNC(=O)Cn1ccc(=O)c2ccc([N+](=O)[O-])cc21
GI50 (NCI-H23): > 100 µM (inactive)
GI50 (Malme-3M): 44.7 µM (inactive)
GI50 (U-251): > 100 µM (inactive)
GI50 (HCT-15): 73.8 µM
GI50 (HCC 2998): > 100 µM (inactive)
GI50 (HCT-116): > 100 µM (inactive)
GI50 (RPMI-8226): > 100 µM (inactive)
GI50 (CAKI-1): > 100 µM (inactive)
GI50 (UACC-257): > 100 µM (inactive)
GI50 (K562): > 100 µM (inactive)
GI50 (NCI-H522): > 100 µM (inactive)
GI50 (UACC-62): > 100 µM (inactive)
GI50 (MOLT-4): > 100 µM (inactive)
GI50 (SK-MEL-28): > 100 µM (inactive)
GI50 (EKVX): > 100 µM (inactive)
GI50 (OVCAR-5): > 100 µM (inactive)
GI50 (A549): > 100 µM (inactive)

COC(=O)c1nn(C(=N)c2ccc(Cl)cc2)c2c1CCC2
GI50 (NCI-H23): > 100 µM (inactive)
GI50 (SNB-75): > 100 µM (inactive)
GI50 (Malme-3M): > 100 µM (inactive)
GI50 (U-251): > 100 µM (inactive)
GI50 (HCT-15): > 100 µM
GI50 (HCC 2998): > 100 µM (inactive)
GI50 (HCT-116): > 100 µM (inactive)
GI50 (RPMI-8226): > 100 µM (inactive)
GI50 (CAKI-1): > 100 µM (inactive)
GI50 (UACC-257): > 100 µM (inactive)
GI50 (K562): > 100 µM (inactive)
GI50 (NCI-H522): > 100 µM (inactive)
GI50 (UACC-62): > 100 µM (inactive)
GI50 (MOLT-4): > 100 µM (inactive)
GI50 (SK-MEL-28): > 100 µM (inactive)
GI50 (OVCAR-5): > 100 µM (inactive)
GI50 (A549): > 100 µM (inactive)

Cn1nc(N)nc1N=S(C)(C)=N
GI50 (NCI-H23): > 100 µM (inactive)
GI50 (SNB-75): > 100 µM (inactive)
GI50 (Malme-3M): > 100 µM (inactive)
GI50 (U-251): > 100 µM (inactive)
GI50 (HCT-15): > 100 µM
GI50 (HCC 2998): > 100 µM (inactive)
GI50 (RPMI-8226): > 100 µM (inactive)
GI50 (CAKI-1): > 100 µM (inactive)
GI50 (UACC-257): > 100 µM (inactive)
GI50 (K562): > 100 µM (inactive)
GI50 (NCI-H522): 83.9 µM (inactive)
GI50 (UACC-62): > 100 µM (inactive)
GI50 (MOLT-4): > 100 µM (inactive)
GI50 (SK-MEL-28): > 100 µM (inactive)
GI50 (EKVX): > 100 µM (inactive)
GI50 (OVCAR-5): > 100 µM (inactive)
GI50 (A549): > 100 µM (inactive)

CCCCN(CCCC)C(=O)/C(CC(=O)c1cccc2ccccc12)=N\NC(=O)c1cc2ccccc2cc1O
GI50 (NCI-H23): 19.9 µM (inactive)
GI50 (SNB-75): 13.4 µM (inactive)
GI50 (Malme-3M): 16.9 µM (inactive)
GI50 (U-251): 19.3 µM (inactive)
GI50 (HCC 2998): 16.3 µM (inactive)
GI50 (HCT-116): 13.1 µM (inactive)
GI50 (RPMI-8226): 3.52 µM (inactive)
GI50 (UACC-257): 21.1 µM (inactive)
GI50 (UACC-62): 6.85 µM (inactive)
GI50 (MOLT-4): 7.83 µM (inactive)
GI50 (SK-MEL-28): 26 µM (inactive)
GI50 (EKVX): 21.6 µM (inactive)
GI50 (OVCAR-5): 30.3 µM (inactive)
GI50 (A549): 21.1 µM (inactive)
